Measured values taken from article PMC8456950, “Structure‐Guided Design of G‐Protein‐Coupled Receptor Polypharmacology” (Angewandte Chemie (International Ed. in English), 2021).

Key:
[1] = target: T1, Human D2R (Homo sapiens, UniProt P14416); test: D2R competition binding ([3H]-spiperone displacement); conditions: for Ki: read-out: D2R binding affinity Ki; for D2R % displacement at 10 μM: 10 μM compound, mean±SEM of three experiments
T1 construct: expressed in transfected cells; host or cells: CHO-D2R #S20 cell line (membranes)
Method: Human D2R competition binding experiments w ere carried out in polypropylene 96-well plates. Each well contained 10 µg of membranes from a CHO-D2R #S20 cell line (protein concentration of 3241 µg/ml), 0.4 nM [3H]-spiperone (80. 2 Ci/mmol, 1 mCi/ml, Perkin […]
The reaction mixture (250 µl/well) was incubated at 25°C for 120 min , after which 200 µL was transferred to a GF/C 96 -well plate (Millipore, Madrid, Spain) pretreated with 0. 5% of PEI and treated with binding buffer (50 mM Tris-HCl, 1 mM EDTA, 5 mM MgCl2, 5 mM KCl, 120 mM NaCl, pH=7.4). The […]
samples were filtered and washed four times with 250 µl wash buffer (50 mM Tris-HCl, 0.9% NaCl, pH=7.4) before measuring in a microplate beta scintillation counter (Microbeta Trilux, PerkinElmer, Madrid, Spain). Three independent exp eriments were carried out to calculate Ki values (n=3). […]

[2] = target: T2, Human A2AAR (Homo sapiens, UniProt P29274); test: A2AAR competition binding ([3H]-ZM241385 displacement); set-up: expressed in transfected cells; host or cells: HeLa-A2AAR cell line (membranes); conditions: for A2AAR % displacement at 10 μM: 10 μM compound, mean±SEM of three experiments; for Ki: radioligand displacement, mean±SEM of three experiments in duplicate, read-out: A2AAR binding affinity Ki
Method: Binding assays. Human A2AAR competition binding experiments were carried out in multiscreen GF/C 96-well plates (Millipore, Madrid, Spain) pretreated with binding buffer (50 mM Tris-HCl, 1 mM EDTA, 10 mM MgCl2, 2 U/ml adenosine deaminase, pH=7.4).
Each well contained 5 µg of membranes from a He l a-A2AAR cell line (protein concentration […]
compound studied. Non-specific binding was determined in the presence of 50 µM NE C A (Sigma E2387). The reaction mixture (200 µl/well) was incubated at 25 °C for 30 min, after which it was filtered and washed four times with 250 µl wash buffer (50 mM Tris -HCl, 1 mM EDTA, 10 mM MgCl 2, pH=7. 4) before measuring in a microplate beta scintillation counter (Microbeta Trilux, PerkinElmer, Madrid, Spain). Three independent experiments were carried out to calculate K i values (n=3). […]

[3] = target: T1, Human D2R; test: D2R functional cAMP (HTRF) assay in CHO-D2 #S20 cells; format: cell-based; conditions: for EC50: cAMP HTRF, CHO-D2 cells, forskolin 10 µM, mean±SEM n=3; for Emax: relative to the maximal effect of dopamine
Method: KB=I C50/(1+([NECA]/EC50 NECA)).
Functional assays for the human D2R were carried out in a CHO-D2 #S20 cell line. 5,000 cells were seed ed in 30 µl of Opti-ME M (Invitrogen 11058) and 500µM IBMX (Sigma 17018) on a 96-well isoplate (PerkinElmer 6005030). The studied compounds wer e then added and incubated for 10 min at 37 °C with gentle stirring (150 rpm). Then, 10 µM […]
forskolin (Sigma 17018) was added and incubated for 5 min at 37 °C with gentle stirring (150 rpm). Reagents (#CISBIO 62AM4PEC) were added and, after incubation for 60 min at rt with gentle stirring (90 rpm) and protected from light, homogeneous time resolved fluorescence (HTRF, λEx: 320 nm; λEm: 620-665 nm) from each well was measured using a Tecan Infinite M1000 Pro. Data were normalized to the maximum effect of dopamine. EC50 and Ema x values were obtained after fitting the d ata to a four -parameter logistic equatio n using Prism V2. 1 (Graph Pad Inc, Chicago, USA) . […]

[4] = target: T2, Human A2AAR; test: A2AAR functional assay, inhibition of NECA-elicited cAMP production in CHO-A2A cells; format: cell-based; set-up: expressed in transfected cells; conditions: mean±SEM n=3
Method: Functional assays. For the human A2AAR, functional experiments measuring cAMP production were carried out in CHO-A2A cell line. The day before the assay, the cells were seeded on a 96-well culture plate (Falcon 353072). The cells were washed with wash buffer (Dulbecco’s modified eagle’s medium nutrient mixture F-12 ham (Sigma D8062), 25 mM Hepes; pH=7.4). Wash buffer was then replaced by incubation buffer (Dulbecco’s modified eagle’s medium nutrient mixture F-12 ham (Sigma D8062), 25 mM Hepes, 20 µM Rolipram, pH=7.4). The studied compounds wer e added and incubated at 37 °C for 15 min. After incubation, NECA (Sigma E2387) was added in several concentrations and incubated at 37 °C for 15 min. After incubation, the amount of cAMP was determined using the cAMP Biotrak Enzymeimmunoassay (EIA) System Kit (GE Healthcare RPN225). Data were adjusted to non-linear fitting by using Prism V2.1 (GraphPad Inc, Chicago USA). K B values were calculated from the IC50 values obtained for each compound by using the formula:
KB=I C50/(1+([NECA]/EC50 NECA)). […]

[5] = target: T3, Human A1AR (Homo sapiens, UniProt P30542); test: A1AR competition binding ([3H]-DPCPX); conditions: 10 µM compound, n=2
T3 construct: expressed in transfected cells; host or cells: CHO-A1AR cell line (membranes)
T3 sequence (P30542 1-326): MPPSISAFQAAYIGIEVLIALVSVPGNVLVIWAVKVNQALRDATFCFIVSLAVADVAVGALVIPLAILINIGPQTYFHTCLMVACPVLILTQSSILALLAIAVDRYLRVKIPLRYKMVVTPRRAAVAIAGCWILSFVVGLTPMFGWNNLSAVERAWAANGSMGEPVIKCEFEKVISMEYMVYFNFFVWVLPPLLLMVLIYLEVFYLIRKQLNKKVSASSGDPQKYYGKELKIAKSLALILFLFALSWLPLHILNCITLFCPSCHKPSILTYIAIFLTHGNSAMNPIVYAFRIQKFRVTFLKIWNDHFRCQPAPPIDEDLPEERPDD
Method: Human A1AR competition binding experiments were carried out in multiscreen GF/C 96 -well plates (Millipore, Madrid, Spain) pretreated with assay buffer ( 20 mM Hepes, 100 mM NaCl, 10 mM MgCl2, 2 U/ml adeno sine deamina se, pH=7.4). Each well contained 5 µg of membranes from a CHO-A1AR cell line, 1 nM [3H]-DPCPX (137 Ci/mmol, 1 mCi/Ml, Perkin Elmer NET974001MC), and the compound studied. Non-specific binding was determined in the presence of R-PIA 10 µM (Sigma P4532). The reaction mixture (200 µl/well) was incubated at 25°C for 60 min. The samples were then filtered and washed four times with 250 µl wash buffer (20 mM Hepes, 100 mM NaCl, 10 mM MgCl2, pH=7.4) before measuring in a microplate beta scintillati on counter (Microbeta Trilux, PerkinElmer, Madrid, Spain). Two independent experiments were carried out to calculate K i values (n=2). […]

[6] = radioligand displacement, mean±SEM of three experiments in duplicate

T1 sequence (P14416 whole entry): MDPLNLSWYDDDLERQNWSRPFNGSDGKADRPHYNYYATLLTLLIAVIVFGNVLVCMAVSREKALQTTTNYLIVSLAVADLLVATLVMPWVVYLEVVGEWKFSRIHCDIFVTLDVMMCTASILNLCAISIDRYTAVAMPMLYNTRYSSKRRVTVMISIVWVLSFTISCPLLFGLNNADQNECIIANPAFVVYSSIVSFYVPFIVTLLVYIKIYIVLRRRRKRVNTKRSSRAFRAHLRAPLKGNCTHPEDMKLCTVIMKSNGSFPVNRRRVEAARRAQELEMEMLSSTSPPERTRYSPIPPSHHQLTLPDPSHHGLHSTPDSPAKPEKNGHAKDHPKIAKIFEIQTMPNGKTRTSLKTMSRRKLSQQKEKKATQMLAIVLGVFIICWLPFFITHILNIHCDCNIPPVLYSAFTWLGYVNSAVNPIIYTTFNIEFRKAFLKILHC
T2 sequence (P29274 whole entry): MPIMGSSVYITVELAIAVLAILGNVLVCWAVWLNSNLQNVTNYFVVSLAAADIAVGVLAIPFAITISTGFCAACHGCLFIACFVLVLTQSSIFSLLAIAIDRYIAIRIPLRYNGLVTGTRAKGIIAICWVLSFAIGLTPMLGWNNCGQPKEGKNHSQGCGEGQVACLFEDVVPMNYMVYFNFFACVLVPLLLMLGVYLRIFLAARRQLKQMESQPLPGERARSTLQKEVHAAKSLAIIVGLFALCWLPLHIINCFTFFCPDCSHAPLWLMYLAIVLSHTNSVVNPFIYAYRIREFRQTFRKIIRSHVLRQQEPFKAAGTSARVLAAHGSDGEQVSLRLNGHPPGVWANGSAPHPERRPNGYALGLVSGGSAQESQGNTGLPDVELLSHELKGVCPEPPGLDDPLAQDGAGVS

SMILES	Ki [1, 6]	A2AAR % displacement at 10 μM [2]	EC50 [3]	Emax [3]	Ki [2]	further results
CN(CCCCNc1ncc(-c2ccccc2)o1)C1Cc2ccccc2C1 [Compound 9]	290 ± 30 nM	9 ± 6%	–	–	–	–
Cc1cccc2sc(NC(=O)CCCN(C)C3Cc4ccccc4C3)nc12 [Compound 31]	630 ± 50 nM	–	5.2 ± 2.6 µM	88 ± 13%	1600 ± 300 nM	–
CN(CCC(=O)Nc1nc2c(Br)cccc2s1)C1Cc2ccccc2C1 [Compound 33]	2200 ± 300 nM	–	5 ± 2.8 µM	81 ± 6%	1100 ± 200 nM	–
CN(CCCC(=O)Nc1nc2c(Br)cccc2s1)C1Cc2ccccc2C1 [Compound 32]	880 ± 110 nM	–	1.2 ± 0.3 µM	51 ± 4%	670 ± 110 nM	–
COc1ccc(OC)c2sc(NC(=O)CCN(C)C3Cc4ccccc4C3)nc12 [Compound 37]	1300 ± 200 nM	–	31 ± 12 µM	103 ± 3%	300 ± 50 nM	–
CCCN(CCCCC(=O)Nc1nc2c(F)cccc2s1)C1Cc2ccccc2C1 [Compound 23]	200 ± 20 nM	–	–	–	2900 ± 600 nM	–
Cc1ccc(NC(=O)CCCCN(C)C2Cc3ccccc3C2)nc1 [Compound 6]	670 ± 60 nM	7 ± 4%	–	–	–	–
CCN(CCC(=O)Nc1nc2c(OC)ccc(OC)c2s1)C1Cc2ccccc2C1 [Compound 40]	1900 ± 300 nM	–	8.9 ± 2.7 µM	105 ± 5%	720 ± 70 nM	–
CCCCCC(=O)Nc1nc2c(C)cccc2s1 [Compound 12]	–	–	–	–	8100 ± 3800 nM	D2R % displacement at 10 μM [1]: 1±2%
CCN(CCC(=O)Nc1nc2c(OC)ccc(C)c2s1)C1Cc2ccccc2C1 [Compound 39]	2000 ± 300 nM	–	28 ± 9 µM	107 ± 6%	1300 ± 200 nM	–
Cc1cccc2sc(NC(=O)CCCCN(C)C3Cc4ccccc4C3)nc12 [Compound 2]	900 ± 80 nM	significant radioligand displacement	9.7 ± 3.8 µM	93 ± 12%	1200 ± 100 nM	D2R % displacement at 10 μM [1]: significant radioligand displacement; D2R binding affinity Ki [1, 6]: submicromolar
CN(CCCCC(=O)Nc1nc2c(Br)cccc2s1)C1Cc2ccccc2C1 [Compound 20]	340 ± 30 nM	–	1.5 ± 0.02 µM	62 ± 9%	190 ± 30 nM	Kb [4]: 320 ± 30 nM; improvement of A2AAR affinity over compound 2 ([2]; relative to 2): > 6 fold
CN(CCCCNc1ncc2ccn(C)c2n1)C1Cc2ccccc2C1 [Compound 10]	–	8 ± 3%	–	–	–	–
CN(C)c1ncnc(NC(=O)CCCCN(C)C2Cc3ccccc3C2)n1 [Compound 7]	–	4 ± 3%	–	–	–	–
CN(CCCCC(=O)Nc1nc2ncccc2[nH]1)C1Cc2ccccc2C1 [Compound 8]	80 ± 10 nM	5 ± 1%	–	–	–	–
CCCN(CCCCC(=O)Nc1nc2c(CC)cccc2s1)C1Cc2ccccc2C1 [Compound 24]	820 ± 180 nM	–	–	–	11000 ± 3000 nM	–
CNC(=O)CCCCN(C)C1Cc2ccccc2C1 [Compound 13]	5000 ± 1300 nM	5±2%	–	–	–	activity for the A2AAR (in words) ([2]; binding assay): no activity
CCCN(CCCCC(=O)Nc1nc2c(OC)ccc(C)c2s1)C1Cc2ccccc2C1 [Compound 29]	670 ± 70 nM	–	0.98 ± 0.01 µM	105 ± 5%	460 ± 40 nM	Kb [4]: 1900 ± 700 nM
CCCN(CCCCC(=O)Nc1nc2c(C)cccc2s1)C1Cc2ccccc2C1 [Compound 25]	340 nM	–	0.75 ± 0.07 µM	81 ± 5%	990 ± 240 nM	–
COc1cccc2sc(NC(=O)CCCCN(C)C3Cc4ccccc4C3)nc12 [Compound 18]	390 ± 30 nM	–	26 ± 14 µM	89 ± 18%	370 ± 50 nM	A1AR % displacement at 10 µM [5]: 18 ± 3%
CN(CCCCC(=O)Nc1nc2c(Cl)cccc2s1)C1Cc2ccccc2C1 [Compound 19]	510 ± 50 nM	–	23 ± 9 µM	82 ± 22%	420 ± 40 nM	–
Cc1cc(C)n2nc(NCCCCN(C)C3Cc4ccccc4C3)nc2n1 [Compound 11]	430 ± 50 nM	4 ± 4%	–	–	–	–
CCN(CCCCC(=O)Nc1nc2c(OC)cccc2s1)C1Cc2ccccc2C1 [Compound 21]	330 ± 20 nM	–	–	–	630 ± 80 nM	–
CCCN(CCCCC(=O)Nc1nc2c(OC)ccc(Cl)c2s1)C1Cc2ccccc2C1 [Compound 28]	900 ± 100 nM	–	1.2 ± 0.2 µM	104 ± 6%	470 ± 110 nM	–
CN(CCCCNc1nc(-c2ccccc2)nc2[nH]ccc12)C1Cc2ccccc2C1 [Compound 3]	290 ± 30 nM	significant radioligand displacement	–	–	5600 ± 900 nM	D2R % displacement at 10 μM [1]: significant radioligand displacement
Cc1nc(NC(=O)CCCCN(C)C2Cc3ccccc3C2)sc1C [Compound 5]	680 ± 50 nM	3 ± 2%	–	–	–	–
CCOc1cc(C)nc(NCCCCN(C)C2Cc3ccccc3C2)n1 [Compound 4]	330 ± 30 nM	significant radioligand displacement	–	–	8400 ± 1300 nM	D2R % displacement at 10 μM [1]: significant radioligand displacement
